This is an account of results in patent publication US4180655A, “Nitrosourea derivatives” (Suami; Tetsuo, priority 1974, dated 1979).

The test system of this test is Leukemia L1210 cells. The test is described as follows: Chemotherapeutic effect of nitrosourea derivatives on leukemia L1210 in mice. Format: in vivo, mice (BDF1/BDF). The source says: Chemotherapeutic effect of a variety of the nitrosourea derivatives of the formula I according to this invention on leukemia L1210 in mice were investigated by the following method and materials.
A--BDF1 mice (about 6 week-aged; body weight: 22±1 g); each experimental group was composed of 2 male mice.
B--BDF1 mice (about 7 week-aged; body weight: 21±2 g); each experimental group was composed of 3 male mice.
C--BDF mice (about 7 week-aged; body weight: 22±2 g); each experimental group was composed of 2 male mice.
D--BDF mice (about 6 week-aged; body weight: 21±2 g); each experimental group was composed of 3 male mice.
E--BDF1 mice (about six week-aged; body weight 20±1 g); each experimental group was composed of 3 female mice.
F--BDF1 mice (about six week-aged; body weight 21±1 g); each experimental group was composed of 3 male mice.
A--Leukemia L1210 cells (2.1×10^6 cells/ 0.05 ml/mouse) were intraperitoneally inoculated.
B--Leukemia L1210 cells (1.9×10^6 cells/0.05 ml/mouse) were intraperitoneally inoculated.
C--Leukemia L1210 cells (1.2×10^6 cells/0.05 ml/mouse) were intraperitoneally inoculated.
A--The test compound was dissolved in a physiological saline solution and administered intraperitoneally at a volume of 0.1 ml/mouse. The administration was made at once/day, from 24 hours after i.p. inoculation of L1210 cells, for 3 days. The effect of test compound was assessed by mean survival days of mice, percent increase in life-span, anatomical findings involving the volume of ascites.
B--The same as that used in A except that the drug administration was continued for 5 days.
C--The same as that used in A except that the test compound was suspended in 0.5% CMC solution and that the drug administration was continued for 5 days.
D--The same as that used in A except that the test compound was dissolved in distilled water for injection purposes.
The percentage increase in life-span (ILS) was calculated as follows:
Percentage increase in life-span (ILS)=T-C/C×100
T: The mean survival days of the treated animals.
C: The mean survival days of the untreated control.

Where [1] appears, read: 1 mg/kg i.p. once/day for 3 days (procedure A, saline).
Setting [2] is: 2 mg/kg i.p. once/day for 3 days (procedure A, saline).
Where [3] appears, read: 4 mg/kg i.p. once/day for 3 days (procedure A, saline).
Where [4] appears, read: 6 mg/kg i.p. once/day for 3 days (procedure A, saline).
Where [5] appears, read: 8 mg/kg i.p. once/day for 3 days (procedure A, saline).
Where [6] appears, read: 10 mg/kg i.p. once/day for 3 days (procedure A, saline).
Setting [7] is: 20 mg/kg i.p. once/day for 3 days (procedure A, saline).
The mark [8] stands for this setting: 30 mg/kg i.p. once/day for 3 days (procedure A, saline).
[9] abbreviates: Mus musculus, L1210, ip, 72 h, 1 mg/kg i.p. once/day for 3 days (procedure A, saline), read-out: Percentage increase in life-span (ILS).
The mark [10] stands for this setting: Mus musculus, L1210, ip, 72 h, 2 mg/kg i.p. once/day for 3 days (procedure A, saline), read-out: Percentage increase in life-span (ILS).
The mark [11] stands for this setting: Mus musculus, L1210, ip, 72 h, 4 mg/kg i.p. once/day for 3 days (procedure A, saline), read-out: Percentage increase in life-span (ILS).
[12] abbreviates: Mus musculus, L1210, ip, 72 h, 8 mg/kg i.p. once/day for 3 days (procedure A, saline), read-out: Percentage increase in life-span (ILS).
The mark [13] stands for this setting: Mus musculus, L1210, ip, 72 h, 10 mg/kg i.p. once/day for 3 days (procedure A, saline), read-out: Percentage increase in life-span (ILS).
Where [14] appears, read: 16 mg/kg i.p. once/day for 3 days (procedure A, saline).
The mark [15] stands for this setting: Mus musculus, L1210, ip, 72 h, 16 mg/kg i.p. once/day for 3 days (procedure A, saline), read-out: Percentage increase in life-span (ILS).
The mark [16] stands for this setting: 50 mg/kg i.p. once/day for 3 days (procedure A, saline).
The mark [17] stands for this setting: 100 mg/kg i.p. once/day for 3 days (procedure A, saline).
Setting [18] is: 150 mg/kg i.p. once/day for 3 days (procedure A, saline).
Where [19] appears, read: 200 mg/kg i.p. once/day for 3 days (procedure A, saline).
The mark [20] stands for this setting: 2.5 mg/kg i.p. once/day for 3 days (procedure A, saline).
Where [21] appears, read: 5 mg/kg i.p. once/day for 3 days (procedure A, saline).

Read-outs that look alike come from different tables or passages of the source. Some results are limits rather than exact numbers.

`O=NN(CCCl)C(=O)N[C@H]1[C@H](O)[C@@H](O)[C@H](O)[C@@H](O)[C@@H]1O` [Compound 5, 1-(2-chloroethyl)-1-nitroso-3-(1N,3,5/2,4,6-pentahydroxycyclohexyl)urea]: the “Survival days, Treated (mean)” value by setting is: under setting [1], 12.0 days; under setting [2], 12.5 days; under setting [3], 13.0 days; under setting [4], 14.0 days; under setting [5], 16.0 days; under setting [6], 15.5 days. For the same compound, the “Survival days, Treated (mean)” value under setting [7] is on record as greater than 61.1 days and the “Survival days, Treated (mean)” value under setting [8] is reported as 11.6 days. In addition, the “Volume of ascites, Treated” value by setting is: under setting [1], 4.5; under setting [2], 4.0; under setting [3], 2.8; under setting [4], 2.0; under setting [5], 2.5; under setting [6], 0. The “Volume of ascites, Treated” value is, setting by setting: under setting [7], 0; under setting [8], 0. Moreover, the ILS at 1 mg/kg under setting [9] is 23.7%. The ILS at 2 mg/kg under setting [10] is 28.9%. Moreover, the ILS at 4 mg/kg under setting [11] came to 34%. The ILS at 6 mg/kg (Mus musculus, L1210, ip, 72 h, 6 mg/kg i.p. once/day for 3 days (procedure A, saline), read-out: Percentage increase in life-span (ILS)) came out at 44.3%. For the same compound, the ILS at 8 mg/kg under setting [12] worked out at 64.9%. In addition, under setting [13], the ILS at 10 mg/kg was determined as 59.8%. In addition, the ILS at 20 mg/kg (Mus musculus, L1210, ip, 72 h, 20 mg/kg i.p. once/day for 3 days (procedure A, saline), read-out: Percentage increase in life-span (ILS)) was greater than 530%. For the same compound, the ILS at 30 mg/kg (Mus musculus, L1210, ip, 72 h, 30 mg/kg i.p. once/day for 3 days (procedure A, saline), read-out: Percentage increase in life-span (ILS)) is 19.6%.

For the compound `O=NN(CCCl)C(=O)N[C@@H](CO)[C@@H](O)[C@H](O)[C@H](O)CO` [Compound 9, N-carbamoyl-N'-(2-chloroethyl)-N'-nitroso-D-glucosaminol], under setting [5], the “Survival days, Treated (mean)” value is 18.0 days and the “Volume of ascites, Treated” value is given as 0. Under setting [14], the “Survival days, Treated (mean)” value is given as greater than 53.7 days and the “Volume of ascites, Treated” value is on record as 0. Also, the ILS at 8 mg/kg under setting [12] worked out at 68.2%. In addition, under setting [15], the ILS at 16 mg/kg is greater than 402%.

In the case of `COc1cccc2c1C(=O)c1c(O)c3c(c(O)c1C2=O)C[C@@](O)(C(C)=O)C[C@@H]3O[C@H]1C[C@H](N)[C@H](O)[C@H](C)O1` [Compound 10, Daunomycin, reference compound], the “Survival days, Treated (mean)” value (0.25 mg/kg i.p. once/day for 5 days (procedure C, 0.5% CMC)) amounted to 10.2 days; the “Survival days, Treated (mean)” value (0.5 mg/kg i.p. once/day for 5 days (procedure C, 0.5% CMC)) is 12.8 days; the “Survival days, Treated (mean)” value (1 mg/kg i.p. once/day for 5 days (procedure C, 0.5% CMC)) was determined as 12.6 days; the “Survival days, Treated (mean)” value (2 mg/kg i.p. once/day for 5 days (procedure C, 0.5% CMC)) was 13.6 days. In addition, the ILS at 0.25 mg/kg (Mus musculus, L1210, ip, 120 h, 0.25 mg/kg i.p. once/day for 5 days (procedure C, 0.5% CMC), read-out: Percentage increase in life-span (ILS)) turned out to be 20%. Besides, where the note is “Mus musculus, L1210, ip, 120 h, 0.5 mg/kg i.p. once/day for 5 days (procedure C, 0.5% CMC), read-out: Percentage increase in life-span (ILS)”, the ILS at 0.5 mg/kg was 50.6%. Moreover, the ILS at 1 mg/kg (Mus musculus, L1210, ip, 120 h, 1 mg/kg i.p. once/day for 5 days (procedure C, 0.5% CMC), read-out: Percentage increase in life-span (ILS)) was determined as 48.3%. Moreover, under “Mus musculus, L1210, ip, 120 h, 2 mg/kg i.p. once/day for 5 days (procedure C, 0.5% CMC), read-out: Percentage increase in life-span (ILS)”, the ILS at 2 mg/kg amounted to 60%.

Take `CN(N=O)C(=O)N[C@@H]1O[C@H](CO)[C@@H](O)[C@H](O)[C@H]1O` [Compound 11, 1-(β-D-glucopyranosyl)-3-methyl-3-nitrosourea, reference compound]: the “Survival days, Treated (mean)” value reads like this: under setting [16], 12.0 days; under setting [17], 13.9 days; under setting [18], 14.1 days; under setting [19], 16.6 days. In addition, the “Volume of ascites, Treated” value is, setting by setting: under setting [16], 2.8; under setting [17], 4.6; under setting [18], 1.9; under setting [19], 1.4. Besides, the ILS at 50 mg/kg (Mus musculus, L1210, ip, 72 h, 50 mg/kg i.p. once/day for 3 days (procedure A, saline), read-out: Percentage increase in life-span (ILS)) amounted to 55.6%. In addition, the ILS at 100 mg/kg (Mus musculus, L1210, ip, 72 h, 100 mg/kg i.p. once/day for 3 days (procedure A, saline), read-out: Percentage increase in life-span (ILS)) amounted to 80.7%. Also, the ILS at 150 mg/kg (Mus musculus, L1210, ip, 72 h, 150 mg/kg i.p. once/day for 3 days (procedure A, saline), read-out: Percentage increase in life-span (ILS)) was 83.4%. Further, under “Mus musculus, L1210, ip, 72 h, 200 mg/kg i.p. once/day for 3 days (procedure A, saline), read-out: Percentage increase in life-span (ILS)”, the ILS at 200 mg/kg worked out at 108%.

In the case of `O=NN(CCCl)C(=O)N[C@@H]1O[C@H](CO)[C@@H](O[C@@H]2O[C@H](CO)[C@H](O)[C@H](O)[C@H]2O)[C@H](O)[C@H]1O` [Compound 8, 1-(2-chloroethyl)-3-(β-D-lactosyl)-1-nitrosourea], the “Survival days, Treated (mean)” value is 12.5 days under setting [20], 14.3 days under setting [21] and greater than 47.0 days under setting [6]. Also, the “Volume of ascites, Treated” value by setting is: under setting [20], 3.3; under setting [21], 1.0; under setting [6], 0. Moreover, where the note is “Mus musculus, L1210, ip, 72 h, 2.5 mg/kg i.p. once/day for 3 days (procedure A, saline), read-out: Percentage increase in life-span (ILS)”, the ILS at 2.5 mg/kg worked out at 28.9%. The ILS at 5 mg/kg (Mus musculus, L1210, ip, 72 h, 5 mg/kg i.p. once/day for 3 days (procedure A, saline), read-out: Percentage increase in life-span (ILS)) was 47.4%. Further, the ILS at 10 mg/kg under setting [13] is greater than 384%.

Regarding `O=NN(CCCl)C(=O)N[C@@H]1OC[C@@H](O)[C@H](O)[C@H]1O` [Compound 3, 1-(2-chloroethyl)-1-nitroso-3-(β-D-xylopyranosyl)urea], the “Survival days, Treated (mean)” value was 17.0 days under setting [1]; greater than 24.0 days under setting [2]; greater than 60.0 days under setting [3]; greater than 60.0 days under setting [5]; 9.0 days under setting [14]. The “Volume of ascites, Treated” value by setting is: under setting [1], 0; under setting [2], 0; under setting [3], 0; under setting [5], 0; under setting [14], 0. The ILS at 1 mg/kg under setting [9] was 54.5%. Further, the ILS at 2 mg/kg under setting [10] is greater than 118%. Besides, under setting [11], the ILS at 4 mg/kg is greater than 446%. Moreover, under setting [12], the ILS at 8 mg/kg is greater than 446%. Further, the ILS at 16 mg/kg under setting [15] is -18.2%.
